Results reported in article PMC6127852 (Journal of Enzyme Inhibition and Medicinal Chemistry, 2018).
In brackets after ≈: the same amount, converted by molar mass.

How the values were obtained:
calf thymus ctDNA = assay: UV–Vis titration with ctDNA (Scatchard); format: binding; settings: PBS, pH 7; for Hypochromic effect H/%, ctDNA: calculated by Scatchard equation; for log Ks, ctDNA: binding constant, Scatchard
How it was run: (§1)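 Polynucleotides titrated into compound at 1.48 × 10^−5 mol dm^−3 in PBS (I = 0.05 mol dm^−3, pH 7.0), with UV–Vis spectra in 1 cm quartz cells; ctDNA sonicated and filtered, concentration as nucleobases. Ks and n from Scatchard analysis, in some cases only from data at r ≥ 0.1.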

polyA-polyU [1] = assay: UV–Vis titration with polyA-polyU (Scatchard); format: binding; settings: for Hypochromic effect H/%, polyA-polyU: UV–Vis titration, calculated by Scatchard equation; for Hypochromic effect H/%, polyA-polyU / log Ks, polyA-polyU: PBS, pH 7; for log Ks, polyA-polyU: binding constant, Scatchard
How it was run: as §1

polyC-polyG = assay: UV–Vis titration with polyC-polyG (Scatchard); format: binding; settings: PBS, pH 7; for log Ks, polyC-polyG: binding constant, Scatchard
How it was run: as §1

ctDNA = assay: Thermal melting (ΔTm) of ctDNA; format: binding, calf; settings: PBS, pH 7; for ΔTm, ctDNA, r = 0.3: r = [compound]/[polynucleotide] 0.3, error ±0.5 °C
How it was run: (§2)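 UV melting monitored at 260 nm in 1 cm cuvettes, ligand absorbance subtracted and normalised; ΔTm = Tm(complex) − Tm(free nucleic acid), mean of at least two runs, error ±0.5 °C. Compound tested at r = 0.1, 0.3, 0.5 and 0.7 eq ([compound]/[polynucleotide]) with ctDNA and polyA-polyU.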

polyA-polyU [2] = assay: Thermal melting (ΔTm) of polyA-polyU; format: binding; settings: for ΔTm, polyA-polyU, r = 0.1: PBS, pH 7; for ΔTm, polyA-polyU, r = 0.3 / ΔTm, polyA-polyU, r = 0.5: first melting midpoint
How it was run: as §2

S. aureus MRSA = assay: Broth microdilution MIC, MRSA clinical strain; format: cell-based; settings: Staphylococcus aureus, antibiotic-resistant clinical strain
How it was run: (§3)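 MICs were set by CLSI broth microdilution in cation (Ca2+, Mg2+)-adjusted Mueller–Hinton broth, in triplicate. Panel: S. aureus ATCC 25923, MRSA, MSSA, E. faecalis, VRE E. faecium, E. coli ATCC 25925, P. aeruginosa ATCC 27853, A. baumannii ATCC 19606 and ESBL K. pneumoniae ATCC 27736.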

S. aureus MSSA = assay: Broth microdilution MIC, MSSA clinical strain; format: cell-based; settings: Staphylococcus aureus
How it was run: as §3

E. faecium VRE = assay: Broth microdilution MIC, VRE clinical strain; format: cell-based; settings: Enterococcus faecium
How it was run: as §3

E. coli ESBL = assay: Broth microdilution MIC, ESBL E. coli clinical strain; format: cell-based; settings: Escherichia coli
K. pneumoniae ESBL = assay: Broth microdilution MIC, ESBL K. pneumoniae clinical strain; format: cell-based; settings: Klebsiella pneumoniae
Method: (§4) The compounds were evaluated for their in vitro anti-bacterial activity against Gram-positive bacteria: S. aureus (ATCC 25923), MRSA, methicillin-sensitive S. aureus (MSSA), E. faecalis, vancomycin-resistant E. faecium (VREF), and Gram-negative bacteria: E. coli (ATCC 25925), P. aeruginosa (ATCC 27853), A. baumannii (ATCC 19606) and ESBL-producing K. pneumoniae (ATCC 27736). Standard broth microdilution method as recommended in guidelines of Clinical and Laboratory Standards Institute[61] ^, [65] ^, [66] was applied and the minimum inhibitory concentration (MIC) of compounds was tested. In short, testing was performed in U-bottomed 96-well sterile plastic microdilution trays (Falcon 3077, Becton Dickinson Labware, Franklin Lakes, NJ) in cation (Ca^2+ and Mg^2+) adjusted Mueller–Hinton broth medium (Becton Dickinson and Co., Cockeysville, MD). All testings were performed in triplicate.

P. aeruginosa ESBL = assay: Broth microdilution MIC, ESBL P. aeruginosa clinical strain; format: cell-based; settings: Pseudomonas aeruginosa
S. aureus ATCC 25923 = assay: Broth microdilution MIC, S. aureus ATCC 25923; format: cell-based; settings: Staphylococcus aureus, ATCC25923; Table S2
How it was run: (§5)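 CLSI broth microdilution; cation-adjusted (Ca^2+, Mg^2+) Mueller–Hinton broth; triplicate; read-out = minimum inhibitory concentration.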

E. faecalis ATCC 29212 = assay: Broth microdilution MIC, E. faecalis ATCC 29212; format: cell-based; settings: Enterococcus faecalis, ATCC29212; Table S2
How it was run: as §5

E. coli ATCC 25925 = assay: Broth microdilution MIC, E. coli ATCC 25925; format: cell-based; settings: Escherichia coli, ATCC25925; Table S2
How it was run: as §5

K. pneumonia ATCC 700803 = assay: Broth microdilution MIC, K. pneumoniae ATCC 700803; format: cell-based; settings: Klebsiella pneumoniae, ATCC700803; Table S2
How it was run: as §5

P. aeruginosa ATCC 27853 = assay: Broth microdilution MIC, P. aeruginosa ATCC 27853; format: cell-based; settings: Pseudomonas aeruginosa, ATCC27853; Table S2
How it was run: as §5

A. baumannii ATCC 19606 = assay: Broth microdilution MIC, A. baumannii ATCC 19606; format: cell-based; settings: Acinetobacter baumannii, ATCC19606; Table S2
How it was run: as §5

[3] = tested on: bloodstream form T. brucei (strain 221); assay: Anti-trypanosomal screening, resazurin; format: cell-based; settings: Trypanosoma brucei, mean of triplicate ± SEM
How it was run: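 Parasites grown in modified Iscove's medium with compound in triplicate; resazurin added at 48 h and plates read after a further 16 h.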

[4] = tested on: polyA-polyU (RNA, polymer) A/U; assay: UV melting at 260 nm; settings: PBS, I = 0.05 M, cations not specified, pH 7, r = 0.3 [compound]/[polynucleotide]
[5] = tested on: polyA-polyU (RNA, polymer) A/U; assay: UV-Vis titration, Scatchard; settings: PBS; for log Ks: I = 0.05 M (Table 1 says I = 0.015 M), cations not specified, I = 0.015 M (Methods: 0.05 M), pH 7, per base
[6] = tested on: polyG-polyC (polyC-polyG) (RNA, polymer) G/C; assay: UV-Vis titration, Scatchard; settings: PBS, I = 0.05 M (Table 1 says I = 0.015 M), cations not specified, I = 0.015 M (Methods: 0.05 M)
[7] = tested on: Gram-positive and Gram-negative bacteria; assay: Anti-microbial activity overall (all tested bacteria); format: cell-based; settings: summary over tested strains; read-out: MIC, anti-microbial activities overall
Method: as §4

N=C(N)c1ccc2[nH]c(-c3ccc(OCc4cn(-c5ccccc5)nn4)cc3)nc2c1 [Compound 7a]
Hypochromic effect H/%, ctDNA (calf thymus ctDNA; UV–Vis titration): 7.8%
log Ks, ctDNA (calf thymus ctDNA): 6.76
Hypochromic effect H/%, polyA-polyU (polyA-polyU [1]): 19.3%
log Ks, polyA-polyU (polyA-polyU [1]): 5.24
log Ks, polyC-polyG (polyC-polyG): 6.44
ΔTm, ctDNA, r = 0.5 (ctDNA): 4.84 °C
ΔTm, ctDNA, r = 0.7 (ctDNA): 4.69 °C
ΔTm, ctDNA, r = 0.3 (ctDNA): 2.46 °C
ΔTm, polyA-polyU, r = 0.1 (polyA-polyU [2]): 1.74 °C
ΔTm, polyA-polyU, r = 0.3 (polyA-polyU [2]; r = 0.3): 1.74 °C
ΔTm, polyA-polyU, r = 0.5 (polyA-polyU [2]; r = 0.5): 2.53 °C
MIC (S. aureus MRSA): 16 µg/mL (≈ 39.1 µM)
MIC (S. aureus MSSA): 32 µg/mL (≈ 78.2 µM)
MIC (E. faecium VRE): 32 µg/mL (≈ 78.2 µM)
MIC (E. coli ESBL): 4 µg/mL (≈ 9.77 µM)
MIC (K. pneumoniae ESBL): 8 µg/mL (≈ 19.5 µM)
MIC (P. aeruginosa ESBL): 128 µg/mL (≈ 313 µM)
MIC (S. aureus ATCC 25923): 32 µg/mL (≈ 78.2 µM)
MIC (E. faecalis ATCC 29212): 64 µg/mL (≈ 156 µM)
MIC (E. coli ATCC 25925): 32 µg/mL (≈ 78.2 µM)
MIC (K. pneumonia ATCC 700803): 128 µg/mL (≈ 313 µM)
MIC (P. aeruginosa ATCC 27853): 128 µg/mL (≈ 313 µM)
MIC (A. baumannii ATCC 19606): > 256 µg/mL
IC50 [3]: 8.6 ± 0.5 µM
IC90 [3]: 16.2 ± 0.9 µM
ΔTm ([4]; error ±0.5, per base): 1.74 °C
log Ks [5]: 5.24
log Ks ([6]; pH 7, n fixed, per base): 6.44

c1ccc(-n2cc(COc3ccc(-c4nc5cc(C6=NCCN6)ccc5[nH]4)cc3)nn2)cc1 [Compound 9a]
Hypochromic effect H/%, ctDNA (from experimental data) (calf thymus ctDNA; UV–Vis titration, footnote e: calculated from experimental data): 25.7 ^e %
Hypochromic effect H/%, polyA-polyU (from experimental data) (polyA-polyU [1]; footnote e: calculated from experimental data): 32.7 ^e %
log Ks, polyC-polyG (polyC-polyG): 6.21
MIC (S. aureus MRSA): 128 µg/mL (≈ 294 µM)
MIC (S. aureus MSSA): 128 µg/mL (≈ 294 µM)
MIC (E. faecium VRE): 128 µg/mL (≈ 294 µM)
MIC (S. aureus ATCC 25923): 128 µg/mL (≈ 294 µM)
MIC (E. faecalis ATCC 29212): 128 µg/mL (≈ 294 µM)
MIC (E. coli ATCC 25925): 256 µg/mL (≈ 588 µM)
MIC (K. pneumonia ATCC 700803): > 256 µg/mL
MIC (P. aeruginosa ATCC 27853): > 256 µg/mL
MIC (A. baumannii ATCC 19606): > 256 µg/mL
MIC [7]: ≥ 128 µg/mL
IC50 [3]: 7.9 ± 0.4 µM
IC90 [3]: 17.2 ± 1.2 µM
binding ([5]; pH 7, changes too small for accurate calculation, compound 14.8 µM): weak
log Ks ([6]; pH 7, n fixed, per base): 6.21

Cl.Cl.N=C(N)c1ccc2[nH]c(-c3ccc(OCc4cn(CSc5ccccc5)nn4)cc3)nc2c1 [Compound 7e, 2–(4-((1-((Phenylthio)methyl)-1H-1,2,3-triazol-4-yl)methoxy)phenyl)-1H-benz[d]imidazole-5-carboximidamide dihydrochloride]
Hypochromic effect H/%, ctDNA (calf thymus ctDNA; UV–Vis titration): 38.2%
log Ks, ctDNA (calf thymus ctDNA): 5.33
Hypochromic effect H/%, polyA-polyU (polyA-polyU [1]): 31.7%
log Ks, polyA-polyU (polyA-polyU [1]): 6.20
Hypochromic effect H/%, polyC-polyG (polyC-polyG; UV–Vis titration, calculated by Scatchard equation): 5.79%
log Ks, polyC-polyG (polyC-polyG): 5.89
ΔTm, ctDNA, r = 0.5 (ctDNA): 2.62 °C
ΔTm, ctDNA, r = 0.7 (ctDNA): 2.66 °C
ΔTm, ctDNA, r = 0.3 (ctDNA): 2.19 °C
ΔTm, polyA-polyU, r = 0.1 (polyA-polyU [2]): 0.39 °C
ΔTm, polyA-polyU, r = 0.3 (polyA-polyU [2]; r = 0.3): 1.11 °C
ΔTm, polyA-polyU, r = 0.3, second melting midpoint (polyA-polyU [2]; r = 0.3, footnote c: biphasic melting curve): 12.58^c °C
ΔTm, polyA-polyU, r = 0.5 (polyA-polyU [2]; r = 0.5): 1.11 °C
ΔTm, polyA-polyU, r = 0.5, second melting midpoint (polyA-polyU [2]; r = 0.5, footnote c: biphasic melting curve): 15.04^c °C
MIC (S. aureus MRSA): 32 µg/mL
MIC (S. aureus MSSA): 128 µg/mL
MIC (E. faecium VRE): 64 µg/mL
MIC (E. coli ESBL): 32 µg/mL
MIC (K. pneumoniae ESBL): 16 µg/mL
MIC (P. aeruginosa ESBL): 32 µg/mL
MIC (S. aureus ATCC 25923): 32 µg/mL
MIC (E. faecalis ATCC 29212): 128 µg/mL
MIC (E. coli ATCC 25925): 32 µg/mL
MIC (K. pneumonia ATCC 700803): 128 µg/mL
MIC (P. aeruginosa ATCC 27853): 64 µg/mL
MIC (A. baumannii ATCC 19606): > 256 µg/mL
IC50 [3]: 10.2 ± 1.3 µM
IC90 [3]: 15.9 ± 0.4 µM
melting point: 173 to 176 °C
ΔTm ([4]; error ±0.5, biphasic, second midpoint 12.58, per base): 1.11 °C
log Ks [5]: 6.20
log Ks ([6]; pH 7, per base): 5.89

N=C(N)c1ccc2[nH]c(-c3ccc(OCc4cn(Cc5ccccc5)nn4)cc3)nc2c1 [Compound 7d]
Hypochromic effect H/%, ctDNA (calf thymus ctDNA; UV–Vis titration): 40.4%
log Ks, ctDNA (calf thymus ctDNA): 5.78
Hypochromic effect H/%, polyA-polyU (polyA-polyU [1]): 32.5%
log Ks, polyA-polyU (polyA-polyU [1]): 5.94
log Ks, polyC-polyG (polyC-polyG): 6.56
ΔTm, ctDNA, r = 0.5 (ctDNA): 3.86 °C
ΔTm, ctDNA, r = 0.7 (ctDNA): 3.62 °C
ΔTm, ctDNA, r = 0.3 (ctDNA): 3.12 °C
ΔTm, polyA-polyU, r = 0.1 (polyA-polyU [2]): 2.06 °C
ΔTm, polyA-polyU, r = 0.3 (polyA-polyU [2]; r = 0.3): 1.14 °C
MIC (S. aureus MRSA): 16 µg/mL (≈ 37.8 µM)
MIC (S. aureus MSSA): 32 µg/mL (≈ 75.6 µM)
MIC (E. faecium VRE): 32 µg/mL (≈ 75.6 µM)
MIC (E. coli ESBL): 16 µg/mL (≈ 37.8 µM)
MIC (K. pneumoniae ESBL): 16 µg/mL (≈ 37.8 µM)
MIC (P. aeruginosa ESBL): 32 µg/mL (≈ 75.6 µM)
MIC (S. aureus ATCC 25923): 32 µg/mL (≈ 75.6 µM)
MIC (E. faecalis ATCC 29212): 64 µg/mL (≈ 151 µM)
MIC (E. coli ATCC 25925): 32 µg/mL (≈ 75.6 µM)
MIC (K. pneumonia ATCC 700803): 64 µg/mL (≈ 151 µM)
MIC (P. aeruginosa ATCC 27853): 32 µg/mL (≈ 75.6 µM)
MIC (A. baumannii ATCC 19606): > 256 µg/mL
IC50 [3]: 12.9 ± 0.2 µM
IC90 [3]: 18.2 ± 1 µM
ΔTm ([4]; error ±0.5, per base): 1.14 °C
log Ks [5]: 5.94
log Ks ([6]; pH 7, per base): 6.56
